Key:
[1] = glassy hydrogel matrix, solvent activation system; cited from earlier work
[2] = Distribution coefficient of benzoic acid between decanol and water; format: physicochemical
Excerpt: Analytical solutions for non-coated, wetted fibers and for non-coated, non-wetted fibers were developed to predict the aqueous phase benzoic acid concentration as a function of time for nylon fibers as well as Celgard® X-20 […] and 400 μm I.D. fibers, both wetted and non-wetted. Predicted results were compared with experimental data (for wetted fibers only) in FIGS. 1, 2 and 3 for Celgard® X-20 240 μm I.D., Celgard® X-20 400 μm I.D. and Nylon 6 600 μm I.D. fibers, respectively. The hollow fiber dimensions and membrane porosities were supplied by the manufacturer. In the case of the silicone coated fibers, the coating thickness was estimated experimentally. The diffusivity of benzoic acid in decanol was estimated using the Wilke-Chang Equation. The diffusivity of benzoic acid in water was taken from Reid et al., Properties of Gases and Liquids, McGraw Hill Book Co., New York, 1977. […]
Aqueous phase benzoic acid concentration was analyzed by a Hewlett-Packard HPLC model 1090, using a Hypersil ODS C-18 reverse phase column. […] The distribution coefficient of benzoic acid between decanol and water was determined experimentally.

[3] = In vitro release from microporous hollow fibers into stirred water bath; format: physicochemical; conditions: 1 μm silicone-coated 240 μm Celgard fibers (with and without wax coating), octanol; experimental vs predicted for uncoated fibers
Protocol: Hollow fibers prepared as such may then be assembled in any fashion intended for controlled release purposes. Preliminary testing of the release kinetics of a selected agent is carried out by immersing a length of the hollow fiber with sealed ends in a stirred water bath and measuring the concentration of the agent in the water bath as it increased with time.
A coating on the outer surface of the fiber provides additional resistance to mass transfer. […] The controlled release of benzoic acid using silicone-coatedhollow fibers (with and without an additional wax coating) and octanol is shown in FIGS. 4A and 4B. For both Figures, the predicted results are based on a 240 μm uncoated fiber with the same membrane thickness, porosity and tortuosity. In FIG. 4A, a 240 μm Celgard® fiber was coated with a 1 μm silicone coating. In FIG. 4B, a 240 μm Celgard® fiber was coated with a 1 μm silicone coating, and an additional wax coating. In both experiments, the solvent was octanol and the diffusing species, benzoic acid.
Aqueous phase benzoic acid concentration was analyzed by a Hewlett-Packard HPLC model 1090, using a Hypersil ODS C-18 reverse phase column. A 40% acetonitrile -60% water (w/w) carrier and UV detector at 254 nm were used. The samples were injected manually into a […] sample loop. […] The distribution coefficient of benzoic acid between decanol and water was determined experimentally. […]

[4] = from Reid et al., 1977, p. 576; cited from earlier work

SMILES: Cn1c(=O)c2[nH]cnc2n(C)c1=O [theophylline]
- release kinetics [1]: zero order release kinetics

SMILES: O=C(O)c1ccccc1 [benzoic acid]
- distribution coefficient (m), ratio of equilibrium solute concentration in organic solvent over that in water [2]: ~50
- effect of fiber coating on time to approach steady state [3]: increases the time required for the system to approach steady state
- release kinetics [1]: zero order release kinetics
- diffusion coefficient in water [4]: 1.2 × 10^-5 cm^2 /s
